The text below walks through data of PubChem BioAssay (NCI).

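1) Cells in 96-well plates. 2) Compound, 48 h, 5 concentrations. 3) Linear interpolation between surrounding doses. 4) Unreached endpoint = highest concentration. The concentration for 50% growth inhibition is given as GI50. TGI: total growth inhibition.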

What all share (assay): inhibition of tumour cell growth, NCI panel, 48 h
Assay [1] concerns RPMI-8226 leukemia.
Assay [2] concerns MDA-MB-435.
The subject of assay [3] is MOLT-4 leukemia.
The subject of assay [4] is EKVX NSCLC.
In assay [5] the test system is 786-0 renal.
In assay [6] the test system is NCI-H522 lung.
Assay [7] has as its system MDA-MB-231 breast.
Assay [8] deals with IGROV1 ovarian.
Assay [9] concerns SN12C renal.
Assay [10] deals with CCRF-CEM leukemia.

As for `CC[As](CC)SC[C@H](C)C(=O)N1CCC[C@H]1C(=O)O`, the GI50 in assay [1] was less than 0.01 µM; in assay [2] it was 0.0305 µM; in assay [3], 0.016 µM; in assay [4] it was 0.162 µM; in assay [5], 0.021 µM; in [6] it was 0.0189 µM. Moreover, the GI50 is 0.0686 µM in assay [7], 0.214 µM in assay [8], 0.0637 µM in assay [9] and 0.017 µM in [10]. Also, the TGI came out at 0.0112 µM in assay [1]; 0.114 µM in [2]; 0.0586 µM in [3]; 1.72 µM in [4]; 0.0743 µM in assay [5]; 0.0482 µM in assay [6]. The TGI in assay [7] came out at 0.301 µM; in assay [8] it was 1.11 µM; in assay [9], 0.218 µM; in assay [10], 0.0573 µM.
In the case of `O=C(O)COc1ccc2c(=O)c3sc4c(=O)c5ccccc5c(=O)c4c3c(=O)c2c1`, the GI50 is 27.6 µM in [1]; 1.78 µM in [2]; 21.5 µM in assay [3]; 16.8 µM in assay [4]; 21.8 µM in assay [5]; 19.3 µM in assay [6]. The GI50 was 17.8 µM in assay [7], 18.3 µM in [8], 12.3 µM in [9] and 23.6 µM in assay [10]. Further, the TGI in assay [1] came to 77.6 µM; in assay [2] it was 3.35 µM; in assay [3], 52.6 µM; in assay [4], 78.8 µM; in assay [5], 76.1 µM; in [6] it was 53.4 µM. Besides, the TGI in [7] turned out to be 71.7 µM; in assay [8], 48.3 µM; in assay [9], 29.8 µM; in assay [10] it was 62.9 µM.
Regarding `COc1cc(C(=O)N2CCN(C=O)C2=S)cc(OC)c1OC`, the TGI in [1] is 42.3 µM; in [2], 30.8 µM; in [3] it was 73.8 µM; in assay [4], 97.6 µM; in [5], 28 µM; in assay [6] it was 20.8 µM. Also, the TGI in [7] is 57.9 µM; in assay [8] it was 57.3 µM; in [9], 40.2 µM; in assay [10], 49 µM. Besides, the GI50 in [2] is 15.5 µM; in assay [3], 29.4 µM; in assay [4], 31.8 µM; in [5] it was 12.7 µM; in assay [6] it was 5.8 µM; in [7], 21.5 µM. Besides, the GI50 in assay [8] was 21.9 µM; in [9] it was 20.2 µM; in assay [10], 18.3 µM.
For the compound `CCN1CCN(C(=O)[C@@]2(C)CC[C@]3(C)CC[C@]4(C)C(=CC(=O)[C@@H]5[C@@]6(C)CC[C@H](OC7C[C@@H](O)[C@@H](O)C(C)O7)C(C)(C)[C@@H]6CC[C@]54C)[C@@H]3C2)CC1` (some centres not stated), the GI50 in [1] is 1.09 µM; in [2], 2.26 µM; in [3], 1.18 µM; in [4], 3.51 µM; in assay [5], 0.933 µM; in [6], 1.59 µM. Also, the GI50 in assay [7] was 1.13 µM; in assay [8] it was 1.68 µM; in assay [9] it was 0.896 µM; in [10] it was 1.52 µM. Besides, the TGI in [1] was 2.52 µM; in [2], 8.19 µM; in [3], 3 µM; in assay [4], 10.4 µM; in [5], 1.82 µM; in assay [6], 6.15 µM. In addition, the TGI in assay [7] is 2.59 µM; in assay [8] it was 6.39 µM; in assay [9], 1.83 µM; in [10] it was 50 µM.
For the compound `Nc1nn2cc(F)cnc2c1C(=O)Nc1cncc(F)c1N1CCC(C(=O)N2CCN(C3COC3)CC2)CC1`, the GI50 is 1.2 µM in assay [1]; 0.266 µM in assay [2]; 0.0712 µM in assay [3]; 0.512 µM in assay [4]; 0.277 µM in [5]; 0.427 µM in [6]. The GI50 in [7] is 1.93 µM; in [8], 0.464 µM; in assay [9], 0.987 µM; in [10] it was 0.0332 µM. The TGI was 2.54 µM in assay [2]; 0.762 µM in assay [3]; more than 100 µM in [4]; more than 100 µM in [5]; 3.05 µM in assay [6]; 6.37 µM in assay [7]. Further, the figures for the TGI in assay [8] and in assay [9] were 3.04 µM and 6.17 µM, respectively.
As to `O=C(/C=C/c1ccccc1)CCC1C(=O)c2ccccc2C1=O`, the TGI in assay [1], in assay [2], in assay [3], in [4], in assay [5] and in [6] was more than 100 µM each time. Besides, the TGI in [7], in assay [8], in assay [9] and in assay [10] was more than 100 µM in each case.
For the compound `O=C(O)c1nnsc1-c1ccc(-c2snnc2C(=O)O)cc1`, the TGI was 68.6 µM in assay [1]; more than 100 µM in assay [2]; 51.4 µM in [3]; more than 100 µM in [4]; more than 100 µM in assay [5]; more than 100 µM in assay [6]. Further, the TGI in assay [7] is more than 100 µM; in assay [8] it was more than 100 µM; in assay [9], more than 100 µM; in assay [10] it was 9.63 µM.
For the compound `Cc1ccc(SC2c3ccc(C)cc3Oc3nc(N)c(C#N)c(N)c32)cc1` (configuration not stated), the GI50 in assay [1] is 2.15 µM; in assay [2], 1.81 µM; in assay [3], 2.27 µM; in assay [4], 1.59 µM; in assay [5], 1.72 µM; in assay [6] it was 1.67 µM. Further, the GI50 in assay [7] was 1.67 µM; in assay [10] it was 2.18 µM. The TGI in assay [1] is 5.12 µM; in assay [2] it was 3.4 µM; in [3], 6.09 µM; in assay [4], 3.09 µM; in [5] it was 3.16 µM; in assay [6], 3.11 µM. Besides, the TGI in [7] was 3.29 µM; in [10], 6.77 µM.
`CC(C)C1=CC23CCC4C(C)(C(=O)O)CCCC4(C)C2CC1C1C(=O)N(c2ccc(Cc4ccc(N5C(=O)C6C7CC8C9(C)CCCC(C)(C(=O)O)C9CCC8(C=C7C(C)C)C6C5=O)cc4)cc2)C(=O)C13` (configuration not stated): the TGI is more than 100 µM in [1]; 13.3 µM in [2]; 32.9 µM in [3]; 24.9 µM in assay [4]; 22.8 µM in assay [5]; 24.1 µM in [6]. The TGI in assay [7] amounted to 58.8 µM; in assay [9], 25.3 µM; in assay [10] it was 38.5 µM.
